For assay [1], the system named is intracellular calcium level of rat polymorphonuclear leucocytes. Put plainly: increase of intracellular calcium level of rat polymorphonuclear leucocytes (Fura-2/AM, PAF). It is filed as cell-based. The following applies: Leucocyte, read-out: IC50, inhibition of the increase of intracellular calcium level. On the procedure: 1% carrageenan was used to induce polymorphonuclear leucocytes from rat peritoneal cavity. The Fura-2/AM (final concentration: 3×10^−6 mol·L^−1) was added into cells suspension. 1 ml of cells suspension was added into the test tube with compound or solvent. The test tubes were placed in a shaking waterbath at 37° C. for 45 min. Then the test tubes were cooled at room temperature for 15 min. The cells were rinsed twice using HBSS to discarded Fura-2/AM remained in outside of the cells. The suspension of cells loaded with Fura-2/AM was added into the absorbent chamber of fluorospectrometer. The cells were kept to suspend at 37° C. and the fluorescence strength was measured at resting condition or after 20μl of PAF (1×10^−4 mol·L^−1), 20 μl of 10% Triton X-100 and 100 μl EGTA (500 mmol·L−1) was added, respectively. The changes of the intracellular level of calcium at the resting condition or after irritants were added was calculated by program for Ca^2+ measurement.
In general terms: Calcium assays in cells follow changes in intracellular calcium, usually with a dye or a luminescent sensor.

Assay [2] has as its system mouse ear edema induced by croton oil. Put plainly: mouse ear edema induced by croton oil. It is filed as in vivo. To be noted: orally, 50 mg·kg^−1, Kunming mice. How it is done:
Kuming mice (male, 18-22 g) were randomly divided into two groups (treatment and control) with 10 animals for each group. The animals were orally administrated with compounds or solvent, respectively. 1 hr later, 50 μl of 2% croton oil was smeared on the two sides of mouse left ear. After 4 hr the mice were sacrificed by cervical vertebra displacement. The two ears were cut off and the central sections were excised using a punch with a diameter of 8 mm and weighed. Edema was quantified as the weight difference between the two sections.

For assay [3], the system named is mouse paw swelling induced by carrageenan. Put plainly: mouse paw swelling induced by carrageenan. The assay is classed as in vivo. To be noted: orally, 50 mg·kg^−1, Kunming mice. How it is done:
Kunming mice (male, 18-22 g) were randomly divided into two groups (treatment and control) with 10 animals for each group. The animals were orally administrated with compounds or solvent, respectively. 1 hr later, 50 μl of 1% carrageenan was intracutaneously injected into the sole of right posterior foot. After 4 hr the animals were sacrificed by displacing cervical vertebra. The two paws were cut off at ankle joint and weighed. The swelling was evaluated by the difference of the weights of two paws.

The target of assay [4] is T1, PAF receptors of rat polymorphonuclear leucocytes (Rattus norvegicus, UniProt P46002).
T1 construct: The suspension of rat polymorphonuclear leucocytes was prepared; endogenous in cells; host or cells: rat polymorphonuclear leucocytes (primary, whole-cell suspension)
T1 sequence (P46002 whole entry): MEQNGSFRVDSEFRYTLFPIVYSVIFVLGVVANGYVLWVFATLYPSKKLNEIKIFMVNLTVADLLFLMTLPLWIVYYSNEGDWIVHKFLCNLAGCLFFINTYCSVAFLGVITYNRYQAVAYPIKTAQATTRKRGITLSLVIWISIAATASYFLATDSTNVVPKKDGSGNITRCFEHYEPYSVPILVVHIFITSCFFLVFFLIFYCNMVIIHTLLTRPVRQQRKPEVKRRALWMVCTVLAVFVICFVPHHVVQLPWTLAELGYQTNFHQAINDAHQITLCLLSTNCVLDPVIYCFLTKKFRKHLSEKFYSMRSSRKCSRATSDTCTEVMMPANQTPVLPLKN
Put plainly: competitive binding of [3H]-PAF to its receptors of rat polymorphonuclear leucocytes. The following applies: 37° C., 30 min, read-out: IC50, competition with [3H]-PAF binding. How it is done: The suspension of rat polymorphonuclear leucocytes was prepared. 240 μl of cells suspension (2×10^6cells·ml^−1), 5 μl of [^3H](5 μmol·L^1) were added into each well. 5 μl of unlabeled PAF (5 μl mol·L^−1)was added into the well for the nonspecific binding. The series concentrations of compound were added into the well for the competitive binding and the corresponding volume of solvent was added into the wells for the total binding or the nonspecific binding. The reaction was kept in water bath at 37° C. for 30 min and stopped by ice bath. Reaction fluid was filtrated using the filter membrane which was rinsed by cold buffer to separate the free labeled ligand. The filter membrane was dried at 80° C. and placed into a vial for scintillation in which 5 ml of scintillation agent was poured. The radioactivity strength was measured by scintillation counter.

The subject of assay [5] is cutaneous vascular permeability in mice induced by PAF. Put plainly: increase of cutaneous vascular permeability in mice induced by PAF. It is filed as in vivo, mouse. To be noted: orally, 50 mg·kg^−1, Kunming mice. How it is done:
Kunming mice (male, 18-22 g) were randomly divided into two groups (treatment and control) with 10 animals for each group. The animals were orally administrated with the compounds or solvent, respectively. 1 hr later, 0.25 ml of 1% evans blue dye was injected into the tail vein. After 10 min, 0.1 ml of PAF (1×10^−8 mol·L^−1) was intracutaneously injected into the dorsal skin shaved. 1 hr later, the animals were sacrificed by cervical vertebra displacement. The skin with blue spot was cut off. The evans blue dye was extracted by 0.8 ml of mixed solution of acetone and normal saline (7:3). The supernatant was transferred into the 96-well plate. The optical density was measured at 620 nm.

Assay [6] concerns rat neutrophils. Put plainly: chemotaxis of rat neutrophils in vitro. It is filed as cell-based. To be noted: Neutrophil, 4 hr, read-out: IC50, inhibition of chemotaxis. How it is done:
The blood was collected from rat common carotid artery and anticoagulated. The neutrophils was isolated by 5% glucose solution and lymphocyte separating medium. 27 μl of irritant was added into the well at low part of the chemotaxis plate. The filter membrane was covered on the wells and the top part of the plate was assembled on the filter. 50 μl of cells suspension with various concentrations of compound or solvent was added into the well at top part of the plate. The plate was incubated at 37° C. for 4 hr. The filter was taken out, stained by hematoxylin and dehydrated. The cells migrated into the other side of the filter was counted by microscope.

For assay [7], the system named is polymorphonuclear leucocytes from rat pleural cavity. Put plainly: release of β-glucuronidase by polymorphonuclear leucocytes from rat pleural cavity in vitro (PAF as irritant). It is filed as cell-based. How it is done: 1% carrageenan was injected into the right pleural cavity of Wistar rat to induce polymorphonuclear leucocytes. The cells was suspended in Dulbecoo's buffer at the concentration of 2.5×10^6 cells·ml^1. The fluid containing the compound or solvent and 250 μl of cells suspension were added in test tube and incubated in 37° C. waterbath for 15 min. Then 2.5 μl of cytochalasin B (1×10^−3 mol·L^−1) was added and the reaction was continued for 5 min. Then 2.5 μl of PAF (1×10^−4 mol·L^−1) was added and for another 5 min. The test tubes were put into ice bath to stop the reaction. The supernatant was isolated and used as the β-glucuronidase release fluid. 25 μl of the enzyme fluid, 25 μl of phenolphthalein-glucuronic acid (2.5 mmol·L^−1) and 100 μl of acetic acid buffer (0.1 mol·L^−1) were added into each well of 96-well plate which was placed into incubater and kept at 37° C.3 for 18 hr. 150 μl of NaOH (0.3 mol·L^−1) was added in each well to cease the reaction and the optical density was read at 550 nm.

The subject of assay [8] is rat ear edema. The following applies: induced by PAF or PMA; cited from earlier work.
Assay [9] deals with mouse ear edema. To be noted: induced by arachidonic acid; cited from earlier work.
Assay [10] concerns TNF-α level in synovial fluid of rat ankle joint. The following applies: induced by immune complex; cited from earlier work.
Assay [11] deals with new vessels in mouse angiogenesis model. To be noted: mouse angiogenesis model induced by synovial fluid of patient with rheumatoid arthritis; cited from earlier work.

SMILES strings stand for the structures. Structures can show the parent of a compound that is named as a salt.

The text below walks through data of patent US8524744B2, “Arylamine ketones, their preparation methods, the pharmaceutical composition containing them and their use” (Institute of Mataria Medica, Chinese Academy of Medical …, priority 2004, dated 2013).

As a reminder, the IC50 is the point on the concentration scale where inhibition reaches its midpoint. Regarding `O=C(C=Cc1ccc(C(F)(F)F)cc1)CCN1CCC(Cc2ccccc2)CC1` [Compound 20, 5-[(4-Benzyl)piperidyl]-1-(4-trifluoromethylphenyl)-1-penten-3-one hydrochloride], the IC50 in [1] was determined as 5160 nM; in assay [4] it was 55000 nM; in assay [6], 335 nM; in assay [7] (Leucocyte, rat polymorphonuclear leucocytes), 308 nM. Moreover, the “Inhibition (%) of mouse ear edema” value in [2] is listed as 27.66%. In addition, the “Inhibition (%) of mouse paw swelling” value in assay [3] turned out to be 21.46%. The “Inhibition (%) of increase of cutaneous vascular permeability” value in [5] is recorded as 55.78%. The “Inhibition (%) of β-glucuronidase release” value in assay [7] (Dose 1 × 10^−5 mol · L^−1, Irritant 1 × 10^−6 mol · L^−1) amounted to 104.03%.
As to `CN(C)C(=O)n1cc(C(=O)c2ccn3c2CS[C@@H]3c2cccnc2)c2ccc(-c3ccc(F)cc3)cc21` [Compound A-85783], the rat ear edema result in assay [8] is “significantly inhibit”.
For `COc1cc([C@H]2CC[C@H](c3cc(OC)c(OC)c(OC)c3)O2)cc(CNC(=O)N(C)O)c1OCCSc1ccc(Cl)cc1` [LDP-392], the mouse ear edema result in [9] is listed as “significantly inhibit”.
As to `Cc1nnc2n1-c1sc3c(c1C(c1ccccc1Cl)=NC2)CC(C(=O)N1CCOCC1)C3` (stereo not drawn) [WEB2170], in assay [10], the “increase of TNF-α level in synovial fluid” value is on record as “inhibit”. In addition, the “increase of new vessels” value in assay [11] is recorded as “inhibit”.
